Earlier results, collected in US7070816B2, “Methods for treating prostatic intraepithelial neoplasia with herbal compositions” (New Chapter, Inc., priority 2003, dated 2006).
Blank lines part the entries; values can stand above or below the compound they belong to.

How the values were obtained:
COX-1 = COX-1 (Homo sapiens, UniProt P23219)
COX-2 = target: T1, COX-2 (Homo sapiens, UniProt P35354)
T1 sequence (P35354 18-604): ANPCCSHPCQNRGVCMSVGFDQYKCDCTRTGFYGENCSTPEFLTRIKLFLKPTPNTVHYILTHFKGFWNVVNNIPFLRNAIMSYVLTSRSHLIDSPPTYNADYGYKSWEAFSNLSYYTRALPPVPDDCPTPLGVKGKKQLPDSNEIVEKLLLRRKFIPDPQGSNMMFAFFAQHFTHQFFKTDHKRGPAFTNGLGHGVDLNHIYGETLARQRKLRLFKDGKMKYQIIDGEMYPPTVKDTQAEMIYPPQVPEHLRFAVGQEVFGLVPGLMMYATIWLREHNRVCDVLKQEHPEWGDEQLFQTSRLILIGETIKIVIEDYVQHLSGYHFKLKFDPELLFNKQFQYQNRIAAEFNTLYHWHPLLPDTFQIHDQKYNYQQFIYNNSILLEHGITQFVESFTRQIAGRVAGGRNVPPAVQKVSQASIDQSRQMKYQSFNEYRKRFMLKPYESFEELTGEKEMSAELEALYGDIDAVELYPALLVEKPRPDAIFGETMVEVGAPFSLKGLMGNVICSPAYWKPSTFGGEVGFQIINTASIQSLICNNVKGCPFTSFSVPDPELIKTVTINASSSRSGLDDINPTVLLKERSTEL

5-lipoxygenase = target: T2, 5-lipoxygenase (Homo sapiens, UniProt P09917)
T2 sequence (P09917 1-674): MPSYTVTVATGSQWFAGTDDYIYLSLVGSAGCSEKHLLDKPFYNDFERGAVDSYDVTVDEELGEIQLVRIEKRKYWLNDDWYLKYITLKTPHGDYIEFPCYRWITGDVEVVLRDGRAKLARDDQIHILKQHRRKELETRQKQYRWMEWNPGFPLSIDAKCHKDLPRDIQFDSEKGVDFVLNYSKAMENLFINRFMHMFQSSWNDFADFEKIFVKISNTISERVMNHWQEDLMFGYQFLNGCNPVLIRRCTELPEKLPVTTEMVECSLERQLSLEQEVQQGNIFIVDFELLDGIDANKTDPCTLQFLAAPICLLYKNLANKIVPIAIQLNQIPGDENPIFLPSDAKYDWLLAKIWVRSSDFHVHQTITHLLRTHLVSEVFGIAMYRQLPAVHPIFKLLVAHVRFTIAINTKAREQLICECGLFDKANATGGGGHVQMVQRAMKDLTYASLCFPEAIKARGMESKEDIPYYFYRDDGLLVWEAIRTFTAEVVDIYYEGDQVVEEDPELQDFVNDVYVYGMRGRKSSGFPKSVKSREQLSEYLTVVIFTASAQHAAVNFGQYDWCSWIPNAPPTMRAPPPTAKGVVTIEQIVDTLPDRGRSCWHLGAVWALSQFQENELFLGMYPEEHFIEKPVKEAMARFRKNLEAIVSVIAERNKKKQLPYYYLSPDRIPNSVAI

Sequence of COX-1 (P23219 24-599): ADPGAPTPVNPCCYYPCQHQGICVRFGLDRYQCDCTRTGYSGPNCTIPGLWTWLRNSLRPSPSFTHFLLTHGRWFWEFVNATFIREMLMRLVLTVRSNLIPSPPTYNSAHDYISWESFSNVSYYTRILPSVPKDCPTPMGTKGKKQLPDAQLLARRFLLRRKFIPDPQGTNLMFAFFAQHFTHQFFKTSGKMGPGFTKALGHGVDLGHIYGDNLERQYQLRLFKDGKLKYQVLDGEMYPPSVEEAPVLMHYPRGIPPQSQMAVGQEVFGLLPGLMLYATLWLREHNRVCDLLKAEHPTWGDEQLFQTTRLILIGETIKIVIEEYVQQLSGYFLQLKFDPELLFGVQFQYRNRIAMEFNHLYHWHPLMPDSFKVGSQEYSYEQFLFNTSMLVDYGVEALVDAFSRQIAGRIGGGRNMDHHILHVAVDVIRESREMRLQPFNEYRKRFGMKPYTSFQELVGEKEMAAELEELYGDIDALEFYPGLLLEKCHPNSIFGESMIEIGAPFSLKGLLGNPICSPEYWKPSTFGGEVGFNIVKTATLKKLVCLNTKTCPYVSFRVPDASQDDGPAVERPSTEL

Compound: Oc1cc(O)c2c(c1)O[C@H](c1ccc(O)c(O)c1)[C@@H](O)C2 [(+)-catechin]
COX-1 inhibition (COX-1): COX-1 and COX-2 inhibitors | COX-2 inhibition (COX-2): COX-1 and COX-2 inhibitors

Compound: COc1ccc2cc3[n+](cc2c1OC)CCc1cc2c(cc1-3)OCO2 [Berberine]
COX-1 inhibition (COX-1): without inhibiting COX-1 activity | COX-2 inhibition (COX-2): inhibit COX-2

Compound: C=CCc1ccc(O)c(OC)c1 [Eugenol]
5-lipoxygenase inhibition (5-lipoxygenase): 5-lipoxygenase inhibitor

Compound: C[C@H]1[C@H](C)CC[C@]2(C(=O)O)CC[C@]3(C)C(=CC[C@@H]4[C@@]5(C)CC[C@H](O)C(C)(C)[C@@H]5CC[C@]43C)[C@H]12 [Ursolic acid]
COX-2 inhibition (COX-2): significant COX-2 inhibitory effect

Second part, the compound after the results:

COX-2 inhibition (COX-2): COX-2 inhibitor
Compound: O=C(O)c1ccccc1O [salicylic acid]

cyclooxygenase inhibition (cyclooxygenase): inhibit cyclooxygenase
Compound: gingerols

cyclooxygenase inhibition (cyclooxygenase): inhibit cyclooxygenase
Compound: shogaols
